Results reported in US12312293B2, “Branched tail lipid compounds and compositions for intracellular delivery of therapeutic agents” (ModernaTX, Inc., priority 2019, dated 2025).

How the values were obtained:
[1] = Characteristics of lipid nanoparticles (size, PDI, encapsulation efficiency); type: physicochemical; conditions: LNP with DSPC, cholesterol, PEG-1 and the compound; for % EE: encapsulation efficiency; for PDI: polydispersity index
From the text: Lipid nanoparticles (e.g., empty LNPs or loaded LNPs) may be characterized by a variety of methods. For example, microscopy (e.g., transmission electron microscopy or scanning electron microscopy) may be used to examine the morphology and size distribution of a nanoparticle composition. Dynamic light scattering or potentiometry (e.g., potentiometric titrations) may be used to measure zeta potentials. Dynamic light scattering may also be utilized to determine particle sizes. Instruments such as the Zetasizer Nano ZS (Malvern Instruments Ltd, Malvern, Worcestershire, UK) may also be used to measure multiple characteristics of a nanoparticle composition, such as particle size, polydispersity index, and zeta potential.
The efficiency of encapsulation of a therapeutic and/or prophylactic describes the amount of therapeutic and/or prophylactic that is encapsulated or otherwise associated with a lipid nanoparticle (e.g., an empty LNP or a loaded LNP) after preparation, relative to the initial amount provided. The encapsulation efficiency is desirably high (e.g., close to 100%). The encapsulation efficiency may be measured, for example, by comparing the amount of therapeutic and/or prophylactic in a solution containing the lipid nanoparticle (e.g., an empty LNP or a loaded LNP) before and after breaking up the lipid nanoparticle (e.g., an empty LNP or a loaded LNP) with one or more organic solvents or detergents. Fluorescence may be used to measure the amount of free therapeutic and/or prophylactic (e.g., RNA) in a solution. For the lipid nanoparticles (e.g., empty LNPs or loaded LNPs) described herein, the encapsulation efficiency of a therapeutic and/or prophylactic may be at least 50%, for example 50%, 55%, 60%, 65%, 70%, 75%, 80%, 85%, 90%, 91%, 92%, 93%, 94%, 95%, 96%, 97%, 98%, 99%, or 100%. In some embodiments, the encapsulation efficiency may be at least 80%. In certain embodiments, the encapsulation efficiency may be at least 90%. In some embodiments, the encapsulation efficiency of the therapeutic and/or prophylactic agent is between 80% and 100%.
Lipid nanoparticles (e.g., empty LNPs or loaded LNPs) including DSPC as a phospholipid, cholesterol as a structural lipid, PEG-1 as a PEG lipid, and a compound according to Formula (1-1), (2-1), (I-a), (A), (B), (A-1), (A-2), (A-3), (IA), (IB), (B-1), (B-2), (B-3), (A-a), (A-a1), (A-a2), (A-a3), (A-b), (A-b1), (A-b2), (A-b3), (A-c), or (B-c) were prepared. Tables 2a and 2b summarize the characteristics of the formulations.

[2] = Residual lipid levels in the liver of mice after LNP administration; type: in vivo; conditions: calculation assumes a 25 g mouse with a 1.5 g liver

| Compound | Size (nm) [1] [nm] | % EE [1] [%] | PDI [1] | Approx. Percent Total Dose of Parent Lipid Remaining at 24 h [2] [%] |
| --- | --- | --- | --- | --- |
| CCCCCC(CCCCC)CCOC(=O)CCCCCCCN(CCCCCCCC(=O)OCCC(CCC)CCC)CCCNc1c(NC)c(=O)c1=O [Compound 51, 3-Pentyloctyl 8-((3-((2-(methylamino)-3,4-dioxocyclobut-1-en-1-yl)amino)propyl)(8-oxo-8-((3-propylhexyl)oxy)octyl)amino)octanoate] | 58.3 | 95.9 | 0.12 |  |
| CCCCC(CCCC)CCOC(=O)CCCCCCCN(CCCCCCCC(=O)OCCC(CCC)CCC)CCCNc1c(NC)c(=O)c1=O [Compound 52, 3-Butylheptyl 8-((3-((2-(methylamino)-3,4-dioxocyclobut-1-en-1-yl)amino)propyl)(8-oxo-8-((3-propylhexyl)oxy)octyl)amino)octanoate] | 70.5 | 84.9 | 0.16 |  |
| CCCCCC(CCCCC)CCOC(=O)CCCCCCCN(CCCCCCCC(=O)OC(CCCCC)CCCCC)CCCNc1c(NC)c(=O)c1=O [Compound 57, 3-Pentyloctyl 8-((3-((2-(methylamino)-3,4-dioxocyclobut-1-en-1-yl)amino)propyl)(8-oxo-8-(undecan-6-yloxy)octyl)amino)octanoate] | 69.4 | 90.1 | 0.12 |  |
| CCCCC(CCCC)CCOC(=O)CCCCCCCN(CCCCCCCC(=O)OCCC(CCCC)CCCC)CCCNc1c(NC)c(=O)c1=O [Compound 55, Bis(3-butylheptyl) 8,8′-((3-((2-(methylamino)-3,4-dioxocyclobut-1-en-1-yl)amino)propyl)azanediyl)dioctanoate] | 77.0 | 88.9 | 0.25 |  |
| CCCCCCC(CCCCCC)OC(=O)CCCCCCCN(CCCCCCCC(=O)OCCC(CCC)CCC)CCCNc1c(NC)c(=O)c1=O [Compound 64, 3-Propylhexyl 8-((3-((2-(methylamino)-3,4-dioxocyclobut-1-en-1-yl)amino)propyl)(8-oxo-8-(tridecan-7-yloxy)octyl)amino)octanoate] | 73.6 | 89.2 | 0.13 |  |
| CCCCCCC(CCCCCC)OC(=O)CCCCCCCN(CCCCCCCC(=O)OCCC(CCCC)CCCC)CCCNc1c(NC)c(=O)c1=O [Compound 60, 3-Butylheptyl 8-((3-((2-(methylamino)-3,4-dioxocyclobut-1-en-1-yl)amino)propyl)(8-oxo-8-(tridecan-7-yloxy)octyl)amino)octanoate] | 60.4 | 98.8 | 0.14 |  |

Next, values leading:

| Size (nm) [1] [nm] | % EE [1] [%] | PDI [1] | Approx. Percent Total Dose of Parent Lipid Remaining at 24 h [2] [%] | Compound |
| --- | --- | --- | --- | --- |
| 63.9 | 90.1 | 0.12 |  | CCCCCC(CCCCC)CCOC(=O)CCCCCCCN(CCCCCCCC(=O)OC(CCCC)CCCC)CCCNc1c(NC)c(=O)c1=O [Compound 58, Nonan-5-yl 8-((3-((2-(methylamino)-3,4-dioxocyclobut-1-en-1-yl)amino)propyl)(8-oxo-8-((3-pentyloctyl)oxy)octyl)amino)octanoate] |
| 64.3 | 98.3 | 0.10 |  | CCCCCC(CCCCC)CCOC(=O)CCCCCCCN(CCCCCCCC(=O)OCCC(CCCC)CCCC)CCCNc1c(NC)c(=O)c1=O [Compound 54, 3-Butylheptyl 8-((3-((2-(methylamino)-3,4-dioxocyclobut-1-en-1-yl)amino)propyl)(8-oxo-8-((3-pentyloctyl)oxy)octyl)amino)octanoate] |
| 91.0 | 83.0 | 0.17 |  | CCCCC(CCCC)CCOC(=O)CCCCCCCN(CCCCCCCC(=O)OC(CCCC)CCCC)CCCNc1c(NC)c(=O)c1=O [Compound 62, 3-Butylheptyl 8-((3-((2-(methylamino)-3,4-dioxocyclobut-1-en-1-yl)amino)propyl)(8-(nonan-5-yloxy)-8-oxooctyl)amino)octanoate] |
| 145.3 | 81.7 | 0.25 |  | CCCCC(CCCC)OC(=O)CCCCCCCN(CCCCCCCC(=O)OCCC(CCC)CCC)CCCNc1c(NC)c(=O)c1=O [Compound 66, Nonan-5-yl 8-((3-((2-(methylamino)-3,4-dioxocyclobut-1-en-1-yl)amino)propyl)(8-oxo-8-((3-propylhexyl)oxy)octyl)amino)octanoate] |
| 63.5 | 98.1 | 0.09 |  | CCCCCC(CCCCC)OC(=O)CCCCCCCN(CCCCCCCC(=O)OCCC(CCCC)CCCC)CCCNc1c(NC)c(=O)c1=O [Compound 61, 3-Butylheptyl 8-((3-((2-(methylamino)-3,4-dioxocyclobut-1-en-1-yl)amino)propyl)(8-oxo-8-(undecan-6-yloxy)octyl)amino)octanoate] |
| 83.1 | 88.6 | 0.17 |  | CCCCCC(CCCCC)OC(=O)CCCCCCCN(CCCCCCCC(=O)OCCC(CCC)CCC)CCCNc1c(NC)c(=O)c1=O [Compound 65, 3-Propylhexyl 8-((3-((2-(methylamino)-3,4-dioxocyclobut-1-en-1-yl)amino)propyl)(8-oxo-8-(undecan-6-yloxy)octyl)amino)octanoate] |
| 56.2 | 98.1 | 0.15 | 9 ± 3 | CCCCCCCC(CCCCCCC)OC(=O)CCCCCCCN(CCCCCCCC(=O)OCCC(CCC)CCC)CCCNc1c(NC)c(=O)c1=O [Compound 63, Pentadecan-8-yl 8-((3-((2-(methylamino)-3,4-dioxocyclobut-1-en-1-yl)amino)propyl)(8-oxo-8-((3-propylhexyl)oxy)octyl)amino)octanoate] |
| 106.7 | 84.2 | 0.28 |  | CCCC(CCC)CCOC(=O)CCCCCCCN(CCCCCCCC(=O)OCCC(CCC)CCC)CCCNc1c(NC)c(=O)c1=O [Compound 53, Bis(3-propylhexyl) 8,8′-((3-((2-(methylamino)-3,4-dioxocyclobut-1-en-1-yl)amino)propyl)azanediyl)dioctanoate] |
